Reference: ChEMBL document CHEMBL5584360, “Undescribed Amaryllidaceae Alkaloids from Zephyranthes citrina and Their Cytotoxicity” (J Nat Prod, 2024)
≈ marks a conversion by molar mass, not a printed value.

What was measured:
[1] = Selectivity index, ratio of cytotoxic effect against human MRC5 cells to cytotoxic effect against human Jurkat cells; assay type: toxicity, cell-based; conditions: MRC5 cells versus Jurkat cells, read-out: Selectivity Index
[2] = Selectivity index, ratio of cytotoxic effect against human MRC5 cells to cytotoxic effect against human MOLT-4 cells
[3] = Selectivity index, ratio of cytotoxic effect against human MRC5 cells to cytotoxic effect against human A549 cells; assay type: toxicity, cell-based; conditions: MRC5 cells versus A549 cells, read-out: Selectivity Index
[4] = Selectivity index, ratio of cytotoxic effect against human MRC5 cells to cytotoxic effect against human HT-29 cells; assay type: toxicity, cell-based; conditions: MRC5 cells versus HT-29 cells, read-out: Selectivity Index
[5] = Selectivity index, ratio of cytotoxic effect against human MRC5 cells to cytotoxic effect against human PANC-1 cells
[6] = Selectivity index, ratio of cytotoxic effect against human MRC5 cells to cytotoxic effect against human A2780 cells; assay type: toxicity, cell-based; conditions: MRC5 cells versus A2780 cells, read-out: Selectivity Index
[7] = Selectivity index, ratio of cytotoxic effect against human MRC5 cells to cytotoxic effect against human HeLa cells; assay type: toxicity, cell-based; conditions: MRC5 cells versus HeLa cells, read-out: Selectivity Index
[8] = Selectivity index, ratio of cytotoxic effect against human MRC5 cells to cytotoxic effect against human MCF7 cells; assay type: toxicity, cell-based; conditions: MRC5 cells versus MCF7 cells, read-out: Selectivity Index
[9] = Selectivity index, ratio of cytotoxic effect against human MRC5 cells to cytotoxic effect against human SAOS-2 cells
A549 = experiment: Cytotoxicity against human A549 cells measured after 72 hrs by MTT assay; assay type: functional, cell-based; conditions: A549, 72 h
Acetylcholinesterase = Acetylcholinesterase (Homo sapiens, UniProt P22303); experiment: Inhibition of human AChE by Ellman's method
Cholinesterase = Cholinesterase (Homo sapiens, UniProt P06276); experiment: Inhibition of human BChE by Ellman's method
KB = experiment: Cytotoxicity against human KB cells; assay type: functional; conditions: read-out: ED50 (the source's name)

Sequence of Acetylcholinesterase (P22303 whole entry): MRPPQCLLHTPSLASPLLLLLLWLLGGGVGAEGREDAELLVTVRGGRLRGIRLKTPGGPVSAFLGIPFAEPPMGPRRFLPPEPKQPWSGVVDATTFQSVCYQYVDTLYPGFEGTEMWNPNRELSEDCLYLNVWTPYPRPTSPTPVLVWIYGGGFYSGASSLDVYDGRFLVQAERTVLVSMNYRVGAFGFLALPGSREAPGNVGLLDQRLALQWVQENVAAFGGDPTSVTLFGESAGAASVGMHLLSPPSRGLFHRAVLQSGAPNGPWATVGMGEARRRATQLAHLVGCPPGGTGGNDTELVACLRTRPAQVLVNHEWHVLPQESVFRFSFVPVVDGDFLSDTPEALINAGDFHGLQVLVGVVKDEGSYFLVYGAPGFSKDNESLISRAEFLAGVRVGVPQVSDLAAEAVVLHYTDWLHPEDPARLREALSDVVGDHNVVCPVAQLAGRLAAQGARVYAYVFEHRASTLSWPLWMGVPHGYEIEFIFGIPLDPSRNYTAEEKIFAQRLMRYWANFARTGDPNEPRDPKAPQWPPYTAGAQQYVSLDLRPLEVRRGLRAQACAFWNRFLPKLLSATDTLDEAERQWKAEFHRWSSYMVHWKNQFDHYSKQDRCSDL
Sequence of Cholinesterase (P06276 whole entry): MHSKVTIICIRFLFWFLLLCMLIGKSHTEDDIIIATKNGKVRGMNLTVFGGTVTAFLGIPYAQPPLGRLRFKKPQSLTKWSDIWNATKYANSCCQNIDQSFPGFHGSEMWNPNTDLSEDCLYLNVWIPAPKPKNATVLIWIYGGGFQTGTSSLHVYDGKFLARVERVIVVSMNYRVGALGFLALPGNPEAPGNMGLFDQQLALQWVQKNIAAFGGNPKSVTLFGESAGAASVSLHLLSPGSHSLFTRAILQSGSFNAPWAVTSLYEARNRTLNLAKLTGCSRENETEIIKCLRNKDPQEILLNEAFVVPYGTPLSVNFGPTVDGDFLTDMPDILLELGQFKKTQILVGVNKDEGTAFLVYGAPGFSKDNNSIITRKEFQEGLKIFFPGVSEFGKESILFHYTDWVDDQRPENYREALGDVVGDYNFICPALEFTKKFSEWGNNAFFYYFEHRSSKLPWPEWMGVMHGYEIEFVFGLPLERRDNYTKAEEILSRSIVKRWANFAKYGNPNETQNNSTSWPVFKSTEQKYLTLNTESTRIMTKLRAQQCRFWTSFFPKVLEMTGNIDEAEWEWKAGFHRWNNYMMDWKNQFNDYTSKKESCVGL

| SMILES | selectivity ratio [1] | Selectivity Index [2] | selectivity ratio [3] | selectivity ratio [4] | Selectivity Index [5] | selectivity ratio [6] | selectivity ratio [7] | selectivity ratio [8] | Selectivity Index [9] | IC50 (A549) [µg/mL] | IC50 (Acetylcholinesterase) [µM] | IC50 (Cholinesterase) [µM] | EC50 (KB) [µg/mL] |
| --- | --- | --- | --- | --- | --- | --- | --- | --- | --- | --- | --- | --- | --- |
| CO[C@@H]1C=C[C@@]23c4cc5c(cc4[C@H](O)N(C[C@@H]2O)[C@H]3C1)OCO5 | 0.14 | 0.14 | 0.14 | 0.14 | 0.14 | 0.14 | 0.14 | 0.14 | 0.14 | – | – | – | – |
| CO[C@H]1C=C[C@@]23c4cc5c(cc4CN(C[C@@H]2O)[C@H]3C1)OCO5 | – | – | – | – | – | – | – | – | – | 15.9 (≈ 52.8 µM) | – | – | – |
| COc1cc(-c2cccc3c2N(C)CC3)c(CN2CC[C@@]34C=C[C@H](O)C[C@@H]3Oc3c(OC)ccc(c34)C2)c(OC)c1OC | – | – | – | – | – | – | – | – | – | – | 18.7 | 1.34 | – |
| COc1cc2c(cc1OC)[C@@]13C=CC(O)C[C@@H]1N(CC3)C2 (stereo partly specified) | – | – | – | – | – | – | – | – | – | – | – | – | 0.51 (≈ 1.77 µM) |
| CO[C@@H]1C=C[C@@]23c4cc5c(cc4CN(C[C@@H]2O)[C@H]3C1)OCO5 [(+)-HAEMANTHAMINE] | 0.05 | 0.05 | 0.05 | 0.05 | 0.05 | 0.05 | 0.05 | 0.05 | 0.05 | – | – | – | – |
| O[C@H]1[C@H]2c3cc4c(cc3CN3CCC(=C[C@@H]1O)[C@H]23)OCO4 [LYCORINE] | 0.62 | 0.62 | 0.62 | 0.62 | 0.62 | 0.62 | 0.62 | 0.62 | 0.62 | – | – | – | – |
